According to EP1466597A1, “Use of dha esters to control or prevent cardiovascular diseases” (Clinigenetics, priority 2003, dated 2004):
“Also recorded” adds a separate entry of the source.

Legend:
[1] = system: PMA stimulated THP1 cells; test: Inhibition of lipoprotein (Cy3-oxLDL) uptake / lipid vesicle accumulation in macrophage foam cells; type: cell-based; conditions: PMA-differentiated THP1 cells, 2 hours with cy3 labeled oxLDL (1 µg/ml), fluorescence microscopy
Description: The THP-1 cell line from the European Collection of Cell Cultures, (ECACC, Wilshire, UK) were selected to generate a cellular model that mimics the differentiation and the growth of a foam cell. Typically, the cells (5.10^5 cells/ml) were maintained and grown in RPMI-1640, 10% FBS, 100 Unit/ml penicillin and 100 µg/ml streptomycin, […] L-Glutamine (Biowhittaker, Verviers , Belgium) in 37°C, 5% CO2 incubator. Medium was replaced every 2-3 days.
Human LDL were isolated from fresh plasma using a two steps KBr gradient ultracentrifugation (Leger et al., Free Rad. Res., 2002, 36, 127-142), LDL were dialyzed against NaCl 150 mM, sodium phosphate 10 mM, DTPA 10 µM (pH 7,4) for 24 hours. […]
Finally, lipoproteins were also characterized by their electrophoretic mobility. […] At the end of the labeling procedure, Cy3-OxLDL was extensively dialyzed and labeling efficiency was evaluated by measuring the absorbance at 548 nm.
To induce differentiation into macrophages, 1.5 10^5 cells/wells were plated in 96-well plates in culture medium supplemented with 10^-7 M of phorbol 12-myristate-13-acetate (Sigma) for 24 hours at 37°C, 5% CO2. […] After 2 washes with PBS, images of Cy-3 oxLDL uptake were captured using a fluorescence microscope coupled with a CCD camera. Each image was analyzed and quantified using QFluoro Software (Leica).

thromboxane A2 = conditions: described in EP 0 623 019; cited from earlier work

In the case of CC/C=C\C/C=C\C/C=C\C/C=C\C/C=C\C/C=C\CCC(=O)O[C@H](CO)COP(=O)([O-])OCC[N+](C)(C)C [lyso-PCDHA, 1-lyso, 2-DHA-glycero-phosphocholine], the “accumulation of lipid vesicles in macrophage / formation of foam cells” value [1] is listed as “can block the accumulation of lipid rich vesicles in macrophage and prevent the formation of foam cell; also recorded: Dose dependent effect for the inhibition of lipid vesicles in macrophage cells; also recorded: can inhibit the accumulation of lipid vesicles in macrophage and block the formation of foam cells” and the platelet aggregation inhibition (thromboxane A2) is listed as “platelet aggregation inhibitors”.
